This passage reports IC50 results from EP0539170A1, “Benzodiazepine derivatives and their use as antagonists of cholecystokinin and/or gastrin receptors” (priority 1991, dated 1993).

Structures can show the parent of a compound that is named as a salt.

The term IC50 denotes the point on the concentration scale where inhibition reaches its midpoint.

The experiment deals with T1, CCK Receptor (Pancreas) (Rattus norvegicus, UniProt P30551).
T1 construct: The whole pancreas was dissected free of fat tissue and was homogenized; from tissue; host or cells: rat pancreas membrane homogenate
T1 sequence (P30551 1-444): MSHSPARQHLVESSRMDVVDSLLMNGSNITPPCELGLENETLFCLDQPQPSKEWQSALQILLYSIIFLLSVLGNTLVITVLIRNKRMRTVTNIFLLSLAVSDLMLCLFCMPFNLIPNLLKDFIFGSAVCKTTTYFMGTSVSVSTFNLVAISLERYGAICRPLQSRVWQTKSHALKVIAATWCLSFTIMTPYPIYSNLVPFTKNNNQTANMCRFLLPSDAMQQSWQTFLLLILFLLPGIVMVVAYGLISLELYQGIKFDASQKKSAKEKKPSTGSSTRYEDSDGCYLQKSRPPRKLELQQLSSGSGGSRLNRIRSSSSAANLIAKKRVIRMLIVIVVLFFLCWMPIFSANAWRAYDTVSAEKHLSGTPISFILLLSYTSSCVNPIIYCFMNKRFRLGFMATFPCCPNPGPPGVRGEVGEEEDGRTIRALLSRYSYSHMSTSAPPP
Put plainly: CCK Receptor Binding (Pancreas), inhibition of specific 125I-CCK-8 binding. More on the design: species or system Sprague-Dawley rats. The settings on record: rat whole pancreas membranes; 50 pM 125I-CCK-8; 25°C for 2 hours. On the procedure: CCK-8 sulphated was radiolabelled with ¹²⁵I-Bolton Hunter reagent (2000 Ci/mmole). Receptor binding was performed according to Chang and Lotti (Proc. Natl. Acad. Sci. 83, 4923-4926, 1986) with minor modifications.
Male Sprague-Dawley rats (150-200g) were sacrificed by decapitation. The whole pancreas was dissected free of fat tissue and was homogenized in 25 volumes of ice-cold 10 mM N-2-hydroxyethyl-piperazine-N′-2-ethane sulphonic acid (HEPES) buffer with 0.1% soya bean trypsin inhibitor (pH 7.4 at 25°C) with a Kinematica Polytron. The homogenates were centrifuged at 47,800 g for 10 min. Pellets were resuspended in 10 volumes of binding assay buffer (20mM (HEPES)), 1mM ethylene glycol-bis-(β-aminoethylether-N,N′-tetraacetic acid) (EGTA), 5mM MgCl₂, 150 mM NaCl, bacitracin 0.25 mg/ml, soya bean trypsin inhibitor 0.1 mg/ml, and bovine serum albumin 2 mg/ml pH 6.5 at 25°C) using a Teflon (trademark) homogenizer, 15 strokes at 500 rpm. The homogenate was further diluted in binding assay buffer to give a final concentration of 0.5 mg original wet weight/1 ml buffer. […] All assays were run in duplicate. The reaction mixtures were incubated at 25°C for 2 hours and the reaction terminated by rapid filtration (Brandell 24 well cell harvester) over Whatman GF/C filters, washing 3 x 4 mls with ice-cold 100 Mm NaCl. The radioactivity on the filters was counted with a LKB gamma counter.
Drug displacement studies were performed with at least 10 concentrations of compounds of Formula I and the IC₅₀ values were determined by regression analysis IC₅₀ refers to the concentration of the compound required to inhibit 50% of specific binding of ¹²⁵I-CCK-8.
`CCc1cccc(NC(=O)NC2N=C(N3CCN(C)CC3)c3ccccc3N(CC(C)C)C2=O)c1` (single isomer, unassigned; (+)) [Example 27, (+)-N-[2,3-Dihydro-5-(4-methylpiperazin-1-yl)-1-(2-methylpropyl)-2-oxo-1H-1,4-benzodiazepin-3-yl]-N#MIN#-[3-ethylphenyl] urea] returned an IC50 of 3.08 µM.
For the compound `CCCN1C(=O)C(NC(=O)Nc2cccc(NC(=O)NC)c2)N=C(N2CCN(C)CC2)c2ccccc21` (single isomer, unassigned; (+)) [Example 40, (+)-N-[2,3-Dihydro-5-(4-methylpiperazin-1-yl)-2-oxo-1-propyl-1H-1,4-benzodiazepin-3-yl]-N′-[3-(methylaminocarbonylamino)phenyl] urea], the IC50 is > 3 µM.
`Cc1cccc(NC(=O)NC2N=C(N3CCCCCCC3)c3ccccc3N(C)C2=O)c1` (single isomer, unassigned; (+)) [Example 52, (+)-N-[2,3-Dihydro-5-(heptamethyleneimin-1-yl)-1-methyl-2-oxo-1H-1,4-benzodiazepin-3-yl]-N′-[3-methylphenyl] urea hydrochloride] had an IC50 of 0.0117 µM.
`CN1C(=O)C(NC(=O)Nc2ccc3c(c2)CCC3)N=C(N2CCCCCC2)c2ccccc21` (single isomer, unassigned; (+)) [Example 59, (+)-N-(2,3-Dihydro-5-(homopiperidin-1-yl)-1-methyl-2-oxo-1H-1,4-benzodiazepin-3-yl]-N′-[5-indanyl] urea hydrochloride] showed a half-inhibitory concentration (IC50) of 0.00892 µM. This IC50 and that of the compound before are within 1.5-fold of each other.
Next, `CCc1cccc(NC(=O)NC2N=C(N3CCCCCC3)c3ccccc3N(C)C2=O)c1` (single isomer, unassigned; (+)) [Example 68, (+)-N-[2,3-Dihydro-5-(homopiperidin-1-yl)-1-methyl-2-oxo-1H-1,4-benzodiazepin-3-yl]-N′-[3-ethylphenyl] urea hydrochloride]: 0.00348 µM; `CCCN1C(=O)C(NC(=O)Nc2cccc(C)c2)N=C(N2CCSCC2)c2ccccc21` (single isomer, unassigned; (+)) [Example 70, (+)-N-[2,3-Dihydro-2-oxo-1-propyl-5-(thiomorpholin-4-yl)-1H-1,4-benzodiazepin-3-yl]-N′-[3-methylphenyl] urea hydrochloride]: 0.0105 µM; `CCCN1C(=O)C(NC(=O)Nc2cccc(C)c2)N=C(N2CCN(C)CC2)c2ccccc21` (single isomer, unassigned; (-)) [Example 24, (-)-N-(2,3-Dihydro-5-(4-methylpiperazin-1-yl)-2-oxo-1-propyl-1H-1,4-benzodiazepin-3-yl]-N′-[3-methylphenyl] urea]: > 3 µM.
Next, `CCc1cccc(NC(=O)NC2N=C(N3CCN(C)CC3)c3ccccc3N(CC(C)C)C2=O)c1` (single isomer, unassigned; (-)) [Example 26, (-)-N-[2,3-Dihydro-5-(4-methylpiperazin-1-yl)-1-(2-methylpropyl)-2-oxo-1H-1,4-benzodiazepin-3-yl]-N#MIN#-[3-ethylphenyl] urea]: 4.72 µM.
The figure for `Cc1cccc(NC(=O)NC2N=C(N3CCCCCC3)c3ccccc3N(C)C2=O)c1` (single isomer, unassigned; (-)) [Example 28, (-)-N-[2,3-Dihydro-5-(homopiperidin-1-yl)-1-methyl-2-oxo-1H-1,4-benzodiazepin-3-yl]-N′-[3-methylphenyl] urea] is > 3 µM; for `CCCN1C(=O)C(NC(=O)Nc2ccc3c(c2)CCC3)N=C(N2CCN(C)CC2)c2ccccc21` (single isomer, unassigned; (-)) [Example 34, (-)-N-[2,3-Dihydro-5-(4-methylpiperazin-1-yl)-2-oxo-1-propyl-1H-1,4-benzodiazepin-3-yl]-N′-[5-indanyl] urea] it is > 3 µM; for `CCCN1C(=O)C(NC(=O)Nc2cccc(N(C)C)c2)N=C(N2CCN(C)CC2)c2ccccc21` (single isomer, unassigned; (-)) [Example 41, (-)-N-[2,3-Dihydro-5-(4-methylpiperazin-1-yl)-2-oxo-1-propyl-1H-1,4-benzodiazepin-3-yl]-N′-[3-(dimethylamino)phenyl] urea] it is > 3 µM.
As to `Cc1cccc(NC(=O)NC2N=C(N3CCCCCCC3)c3ccccc3N(C)C2=O)c1` (single isomer, unassigned; (-)) [Example 51, (-)-N-[2,3-Dihydro-5-(heptamethyleneimin-1-yl)-1-methyl-2-oxo-1H-1,4-benzodiazepin-3-yl]-N′-[3-methylphenyl] urea hydrochloride], the IC50 was 1.92 µM.
The figure for `CN1C(=O)C(NC(=O)Nc2ccc3c(c2)CCC3)N=C(N2CCCCCC2)c2ccccc21` (single isomer, unassigned; (-)) [Example 58, (-)-N-[2,3-Dihydro-5-(homopiperidin-1-yl)-1-methyl-2-oxo-1H-1,4-benzodiazepin-3-yl]-N′-[5-indanyl] urea hydrochloride] is 2.43 µM; for `CCc1cccc(NC(=O)NC2N=C(N3CCCCCC3)c3ccccc3N(C)C2=O)c1` (single isomer, unassigned; (-)) [Example 67, (-)-N-[2,3-Dihydro-5-(homopiperidin-1-yl)-1-methyl-2-oxo-1H-1,4-benzodiazepin-3-yl]-N′-[3-ethylphenyl] urea hydrochloride] it is 0.31 µM; for `CCCN1C(=O)C(NC(=O)Nc2cccc(C)c2)N=C(N2CCSCC2)c2ccccc21` (single isomer, unassigned; (-)) [Example 69, (-)-N-[2,3-Dihydro-2-oxo-1-propyl-5-(thiomorpholin-4-yl)-1H-1,4-benzodiazepin-3-yl]-N′-[3-methylphenyl] urea hydrochloride] it is 0.515 µM.
